From patent publication US9150632B2 (Indiana University Research and Technology Corporation, priority 2009, dated 2015)
pEC50: −log10 of the molar value. Blank lines part the entries; values can stand above or below the molecule they belong to. Positions of bridges follow the written chain, without caps; N, C: chain ends. Non-standard residues stand in square brackets, D forms with d. Residues, ends and D or L forms follow the SMILES beside them. No end group written: not given here. *: point of attachment. Myristoyl = CCCCCCCCCCCCCC(=O)*; Aib = CC(C)(N)C(=O)O

Experiments:
glucagon receptor = biological target: T1, glucagon receptor (Homo sapiens, UniProt P47871); test: Functional assay-cAMP synthesis, luciferase reporter in HEK293 cells, glucagon receptor; type: cell-based; details: for Glucagon Receptor Relative Potency: Table 11; for % Activity of Glucagon: Table 21, relative to the native peptide
T1 construct: expressed in transfected cells; host or cells: HEK293
T1 sequence (P47871 26-477): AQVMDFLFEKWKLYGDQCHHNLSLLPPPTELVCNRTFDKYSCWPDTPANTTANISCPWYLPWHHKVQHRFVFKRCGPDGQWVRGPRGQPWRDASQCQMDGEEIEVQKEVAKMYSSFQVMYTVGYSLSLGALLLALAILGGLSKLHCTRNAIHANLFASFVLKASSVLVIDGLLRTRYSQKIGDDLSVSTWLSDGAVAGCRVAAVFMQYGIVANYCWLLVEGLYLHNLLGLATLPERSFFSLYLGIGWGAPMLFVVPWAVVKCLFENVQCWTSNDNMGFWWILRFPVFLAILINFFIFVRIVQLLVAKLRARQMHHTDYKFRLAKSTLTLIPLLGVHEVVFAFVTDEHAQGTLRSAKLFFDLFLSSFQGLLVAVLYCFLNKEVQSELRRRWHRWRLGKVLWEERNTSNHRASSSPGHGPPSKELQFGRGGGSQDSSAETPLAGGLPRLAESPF

GLP-1 receptor = GLP-1 receptor (Homo sapiens, UniProt P43220); details: for GLP-1 Receptor Relative Potency: Table 11; for % Activity of GLP-1: Table 21, relative to the native peptide; for GLP-1 Receptor % relative activity: activity relative to the native hormone at the indicated receptor; for pEC50: read-out: GLP-1 Receptor EC50, cAMP induction, in vitro, as in Example 14
Chain of GLP-1 receptor (P43220 24-463, species assumed): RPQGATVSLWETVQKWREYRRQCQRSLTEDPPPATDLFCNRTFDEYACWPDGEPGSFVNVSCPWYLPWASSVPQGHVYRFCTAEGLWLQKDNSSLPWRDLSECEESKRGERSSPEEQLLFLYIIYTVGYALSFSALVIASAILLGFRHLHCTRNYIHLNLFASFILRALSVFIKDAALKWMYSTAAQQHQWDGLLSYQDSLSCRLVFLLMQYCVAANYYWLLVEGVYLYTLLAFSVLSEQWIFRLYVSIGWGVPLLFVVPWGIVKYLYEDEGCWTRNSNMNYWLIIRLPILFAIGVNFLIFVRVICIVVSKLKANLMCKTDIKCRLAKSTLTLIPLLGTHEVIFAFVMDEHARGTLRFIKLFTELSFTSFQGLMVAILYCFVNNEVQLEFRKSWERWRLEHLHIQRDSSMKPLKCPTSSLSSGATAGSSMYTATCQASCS

GIP receptor = biological target: T2, GIP receptor (Homo sapiens, UniProt P48546); test: Functional assay-cAMP synthesis, luciferase reporter in HEK293 cells, GIP receptor; type: cell-based; details: for GIP Receptor % relative activity: activity relative to the native hormone at the indicated receptor; for pEC50: read-out: GIP Receptor EC50, cAMP induction, in vitro, as in Example 14
T2 construct: expressed in transfected cells; host or cells: HEK293
T2 sequence (P48546 22-466): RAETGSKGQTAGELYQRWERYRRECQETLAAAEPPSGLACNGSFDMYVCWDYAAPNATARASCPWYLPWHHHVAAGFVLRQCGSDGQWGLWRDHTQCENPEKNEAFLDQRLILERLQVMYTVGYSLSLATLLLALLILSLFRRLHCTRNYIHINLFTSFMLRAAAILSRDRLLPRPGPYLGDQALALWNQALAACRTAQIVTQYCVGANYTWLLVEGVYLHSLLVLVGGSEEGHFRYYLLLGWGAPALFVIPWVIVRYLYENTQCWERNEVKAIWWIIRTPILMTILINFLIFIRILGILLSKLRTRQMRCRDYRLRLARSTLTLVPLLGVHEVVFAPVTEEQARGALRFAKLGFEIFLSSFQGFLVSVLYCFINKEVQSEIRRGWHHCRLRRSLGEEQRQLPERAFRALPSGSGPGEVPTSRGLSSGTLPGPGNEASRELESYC

[1] = Table 18, relative to the native hormone of the indicated receptor
[2] = Table 35, relative to the native hormone

Molecule: CSCC[C@H](NC(=O)[C@H](CC(C)C)NC(=O)[C@H](Cc1c[nH]c2ccccc12)NC(=O)[C@H](CCC(N)=O)NC(=O)[C@@H](NC(=O)[C@H](Cc1ccccc1)NC(=O)[C@H](CC(=O)O)NC(=O)[C@H](CCC(N)=O)NC(=O)[C@H](C)NC(=O)[C@H](CCCNC(=N)N)NC(=O)[C@H](CCCNC(=N)N)NC(=O)[C@H](CO)NC(=O)[C@H](CC(=O)O)NC(=O)[C@H](CC(C)C)NC(=O)[C@H](Cc1ccc(O)cc1)NC(=O)[C@H](CCCCN)NC(=O)[C@H](CO)NC(=O)[C@H](Cc1ccc(O)cc1)NC(=O)[C@H](CC(=O)O)NC(=O)[C@H](CO)NC(=O)[C@@H](NC(=O)[C@H](Cc1ccccc1)NC(=O)[C@@H](NC(=O)CNC(=O)[C@H](CCC(N)=O)NC(=O)[C@H](CO)NC(=O)[C@@H](N)Cc1c[nH]cn1)[C@@H](C)O)[C@@H](C)O)C(C)C)C(=O)N[C@@H](CC(N)=O)C(=O)NCC(=O)NCC(=O)N1CCC[C@H]1C(=O)N[C@@H](CO)C(=O)N[C@@H](CO)C(=O)NCC(=O)N[C@@H](C)C(=O)N1CCC[C@H]1C(=O)N1CCC[C@H]1C(=O)N1CCC[C@H]1C(=O)N[C@@H](CO)C(N)=O [MNGG^30 PSSGAPPPS (SEQ ID NO: 522)]
- Glucagon Receptor Relative Potency (glucagon receptor): 30%
- GLP-1 Receptor Relative Potency (GLP-1 receptor): 8%

Molecule: CSCC[C@H](NC(=O)[C@H](CC(C)C)NC(=O)[C@H](Cc1c[nH]c2ccccc12)NC(=O)[C@H](CC(N)=O)NC(=O)[C@@H](NC(=O)[C@H](Cc1ccccc1)NC(=O)[C@H](CCC(=O)O)NC(=O)[C@@H]1CCCCNC(=O)CC[C@H](NC(=O)[C@H](CC(=O)O)NC(=O)[C@H](CC(C)C)NC(=O)[C@H](Cc2ccc(O)cc2)NC(=O)[C@H](CCCCN)NC(=O)[C@H](CO)NC(=O)[C@H](Cc2ccc(O)cc2)NC(=O)[C@H](CC(=O)O)NC(=O)[C@H](CO)NC(=O)[C@@H](NC(=O)[C@H](Cc2ccccc2)NC(=O)[C@@H](NC(=O)CNC(=O)[C@H](CCC(N)=O)NC(=O)[C@H](CO)NC(=O)[C@@H](N)Cc2ccc(O)cc2)[C@@H](C)O)[C@@H](C)O)C(=O)N[C@@H](CCC(N)=O)C(=O)N[C@@H](C)C(=O)N[C@@H](C)C(=O)N1)C(C)C)C(=O)N[C@@H](CC(N)=O)C(=O)NCC(=O)NCC(=O)N1CCC[C@H]1C(=O)N[C@@H](CO)C(=O)N[C@@H](CO)C(=O)NCC(=O)N[C@@H](C)C(=O)N1CCC[C@H]1C(=O)N1CCC[C@H]1C(=O)N1CCC[C@H]1C(=O)N[C@@H](CO)C(N)=O [SEQ ID NO: 555] (H-YSQGTFTSDYSKYLDEQAAKEFVNWLMNGGPSSGAPPPS-NH2; lactam 16-20; N-terminus assumed)
- Relative Activity, Glucagon receptor (glucagon receptor; [1]): 343.18%
- Relative Activity, GLP-1 receptor (GLP-1 receptor; [1]): 100.00%

- % Activity of Glucagon (glucagon receptor): 21.9%
- % Activity of GLP-1 (GLP-1 receptor): 6.3%
Molecule: CCCCCCCCCCCCCC(=O)NCCCC[C@H](NC(=O)[C@H](CC(=O)O)NC(=O)[C@H](CO)NC(=O)[C@@H](NC(=O)[C@H](Cc1ccccc1)NC(=O)[C@@H](NC(=O)CNC(=O)[C@H](CCC(N)=O)NC(=O)[C@@H](CO)NC(=O)[C@@H](N)Cc1c[nH]cn1)[C@@H](C)O)[C@@H](C)O)C(=O)N[C@@H](CO)C(=O)N[C@@H](CCCCN)C(=O)N[C@@H](Cc1ccc(O)cc1)C(=O)N[C@@H](CC(C)C)C(=O)N[C@@H](CC(=O)O)C(=O)N[C@@H](CCC(=O)O)C(=O)N[C@@H](CCCNC(=N)N)C(=O)N[C@@H](CCCNC(=N)N)C(=O)N[C@@H](C)C(=O)N[C@@H](CCCCN)C(=O)N[C@@H](CC(=O)O)C(=O)N[C@@H](Cc1ccccc1)C(=O)N[C@H](C(=O)N[C@@H](CCC(N)=O)C(=O)N[C@@H](Cc1c[nH]c2ccccc12)C(=O)N[C@@H](CC(C)C)C(=O)N[C@@H](CCSC)C(=O)N[C@@H](CC(N)=O)C(=O)N[C@H](C(N)=O)[C@@H](C)O)C(C)C [dS2, E16/K20, K10(C14) Gluc Amide, HXQGTFTSDKSKYLDERRAKDFVQWLMNT-amide]

- % Activity of Glucagon (glucagon receptor): 44.7%
- % Activity of GLP-1 (GLP-1 receptor): 19.5%
Molecule: CCCCCCCCCCCCCCCC(=O)NCCCC[C@H](NC(=O)[C@H](CC(=O)O)NC(=O)[C@H](CO)NC(=O)[C@@H](NC(=O)[C@H](Cc1ccccc1)NC(=O)[C@@H](NC(=O)CNC(=O)[C@H](CCC(N)=O)NC(=O)[C@@H](CO)NC(=O)[C@@H](N)Cc1c[nH]cn1)[C@@H](C)O)[C@@H](C)O)C(=O)N[C@@H](CO)C(=O)N[C@@H](CCCCN)C(=O)N[C@@H](Cc1ccc(O)cc1)C(=O)N[C@@H](CC(C)C)C(=O)N[C@@H](CC(=O)O)C(=O)N[C@@H](CCC(=O)O)C(=O)N[C@@H](CCCNC(=N)N)C(=O)N[C@@H](CCCNC(=N)N)C(=O)N[C@@H](C)C(=O)N[C@@H](CCCCN)C(=O)N[C@@H](CC(=O)O)C(=O)N[C@@H](Cc1ccccc1)C(=O)N[C@H](C(=O)N[C@@H](CCC(N)=O)C(=O)N[C@@H](Cc1c[nH]c2ccccc12)C(=O)N[C@@H](CC(C)C)C(=O)N[C@@H](CCSC)C(=O)N[C@@H](CC(N)=O)C(=O)N[C@H](C(N)=O)[C@@H](C)O)C(C)C [dS2, E16/K20, K10(C16) Gluc Amide, HXQGTFTSDKSKYLDERRAKDFVQWLMNT-amide]

- % Activity of Glucagon (glucagon receptor): 196%
- % Activity of GLP-1 (GLP-1 receptor): 60%
Molecule: CCCCCCCCCCCCCCCCCC(=O)NCCCC[C@H](NC(=O)[C@H](CC(=O)O)NC(=O)[C@H](CO)NC(=O)[C@@H](NC(=O)[C@H](Cc1ccccc1)NC(=O)[C@@H](NC(=O)CNC(=O)[C@H](CCC(N)=O)NC(=O)[C@@H](CO)NC(=O)[C@@H](N)Cc1c[nH]cn1)[C@@H](C)O)[C@@H](C)O)C(=O)N[C@@H](CO)C(=O)N[C@@H](CCCCN)C(=O)N[C@@H](Cc1ccc(O)cc1)C(=O)N[C@@H](CC(C)C)C(=O)N[C@@H](CC(=O)O)C(=O)N[C@@H](CCC(=O)O)C(=O)N[C@@H](CCCNC(=N)N)C(=O)N[C@@H](CCCNC(=N)N)C(=O)N[C@@H](C)C(=O)N[C@@H](CCCCN)C(=O)N[C@@H](CC(=O)O)C(=O)N[C@@H](Cc1ccccc1)C(=O)N[C@H](C(=O)N[C@@H](CCC(N)=O)C(=O)N[C@@H](Cc1c[nH]c2ccccc12)C(=O)N[C@@H](CC(C)C)C(=O)N[C@@H](CCSC)C(=O)N[C@@H](CC(N)=O)C(=O)N[C@H](C(N)=O)[C@@H](C)O)C(C)C [dS2, E16/K20, K10(C18) Gluc Amide]

Molecule: CCCCCCCCCCCCCC(=O)NCCCC[C@H](NC(=O)[C@H](CO)NC(=O)[C@@H]1CCCN1C(=O)[C@@H]1CCCN1C(=O)[C@@H]1CCCN1C(=O)[C@H](C)NC(=O)CNC(=O)[C@H](CO)NC(=O)[C@H](CO)NC(=O)[C@@H]1CCCN1C(=O)CNC(=O)CNC(=O)[C@H](CC(N)=O)NC(=O)[C@H](CCSC)NC(=O)[C@H](CC(C)C)NC(=O)[C@H](Cc1c[nH]c2ccccc12)NC(=O)[C@H](CS)NC(=O)[C@@H](NC(=O)[C@H](Cc1ccccc1)NC(=O)[C@H](CCC(=O)O)NC(=O)[C@H](CCCCN)NC(=O)[C@H](C)NC(=O)[C@H](C)NC(=O)[C@H](CCC(N)=O)NC(=O)C(C)(C)NC(=O)[C@H](CC(=O)O)NC(=O)[C@H](CC(C)C)NC(=O)[C@H](Cc1ccc(O)cc1)NC(=O)[C@H](CCCCN)NC(=O)[C@H](CO)NC(=O)[C@H](Cc1ccc(O)cc1)NC(=O)[C@H](CC(=O)O)NC(=O)[C@H](CO)NC(=O)[C@@H](NC(=O)[C@H](Cc1ccccc1)NC(=O)[C@@H](NC(=O)CNC(=O)[C@H](CCC(N)=O)NC(=O)C(C)(C)NC(=O)[C@@H](N)Cc1c[nH]cn1)[C@@H](C)O)[C@@H](C)O)[C@@H](C)CC)C(N)=O [mt-347] (H-H[Aib]QGTFTSDYSKYLD[Aib]QAAKEFICWLMNGGPSSGAPPPSK(Myristoyl)-NH2; N-terminus assumed)
- % Relative activity at the Receptor for Glucagon (glucagon receptor; [2]): 111%
- Glucagon Receptor % relative activity (glucagon receptor; activity relative to the native hormone at the indicated receptor): 111.36%
- % Relative activity at the Receptor for GIP (GIP receptor; [2]): 0.7%
- GIP Receptor % relative activity (GIP receptor): 0.70%
- % Relative activity at the Receptor for GLP-1 (GLP-1 receptor; [2]): 67%
- GLP-1 Receptor % relative activity (GLP-1 receptor): 67.07%

Molecule: H-HSQGTFTSDYSKYLDSRRAQDFVQWLVKGGPSSGAPPPS-NH2 [VKGG^30 PSSGAPPPS (SEQ ID NO: 524)]
- Glucagon Receptor Relative Potency (glucagon receptor): 7%
- GLP-1 Receptor Relative Potency (GLP-1 receptor): 12%

Molecule: mt-351: pegylated glucagon peptide of Table 34 (H[Aib]QGTFTSDYSKYLD[Aib]QAAKEFIC(PEG 40 kDa)WLMNGGPSSGAPPPSK(Myristoyl)-NH2; also: acylated with a C14 fatty acyl group, site not given here)
- GIP Receptor % relative activity (GIP receptor): 0.09%
- pEC50 (GIP receptor): 8.38
- GLP-1 Receptor % relative activity (GLP-1 receptor): 150.00%
- pEC50 (GLP-1 receptor): 11.38

Molecule: mt-352: pegylated glucagon peptide of Table 34 (H[Aib]QGTFTSDYSKYLD[Aib]QAAKEFIC(PEG 40 kDa)WLMNGGPSSGAPPPSK-NH2)
- GIP Receptor % relative activity (GIP receptor): 0.01%
- pEC50 (GIP receptor): 7.29
- GLP-1 Receptor % relative activity (GLP-1 receptor): 23.08%
- pEC50 (GLP-1 receptor): 10.56
